Results as given in PubChem BioAssay AID330 (DTP/NCI, 2004).
“And” between values parts separate entries of the source, which are not always exact repeats. Equal entries are not always repeated. Inconclusive results and toxic doses are left out. The calls were made as follows: active = survival T/C of 150% or more; inactive = T/C below 125% in these data.

System: P388 leukemia ip, CD2F1 mice, survival T/C
Experiment: NCI In Vivo Anticancer Drug Screen. Data for tumor model P388 Leukemia (intraperitoneal) in CD2F1 (CDF1) mice
Details: endpoint: median survival time, higher = longer survival
How it was run: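 Mice carrying the transplanted tumor received test compound or vehicle. Survival was recorded in each group, and the value is the treated-group measurement divided by that of the vehicle-treated control group.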

[1] = dose: 60.0 mg/kg/injection, schedule: Q01DX005 (ip), vehicle: Klucel (hydroxypropylcellulose) (HPC)
[2] = dose: 120.0 mg/kg/injection, schedule: Q01DX005 (ip), vehicle: Klucel (hydroxypropylcellulose) (HPC)
[3] = dose: 240.0 mg/kg/injection, schedule: Q01DX005 (ip), vehicle: Klucel (hydroxypropylcellulose) (HPC)
[4] = dose: 12.5 mg/kg/injection, schedule: Q01DX005 (ip), vehicle: Klucel (hydroxypropylcellulose) (HPC)
[5] = dose: 25.0 mg/kg/injection, schedule: Q01DX005 (ip), vehicle: Klucel (hydroxypropylcellulose) (HPC)
[6] = dose: 50.0 mg/kg/injection, schedule: Q01DX005 (ip), vehicle: Klucel (hydroxypropylcellulose) (HPC)
[7] = dose: 30.0 mg/kg/injection, schedule: Q01DX005 (ip), vehicle: Klucel (hydroxypropylcellulose) (HPC)
[8] = dose: 50.0 mg/kg/injection, schedule: Q01DX005 (ip), vehicle: saline with Tween-80
[9] = dose: 100.0 mg/kg/injection, schedule: Q01DX005 (ip), vehicle: saline with Tween-80
[10] = dose: 200.0 mg/kg/injection, schedule: Q01DX005 (ip), vehicle: saline with Tween-80
[11] = dose: 50.0 mg/kg/injection, schedule: Q01DX009 (ip), vehicle: saline with Tween-80
[12] = dose: 100.0 mg/kg/injection, schedule: Q01DX009 (ip), vehicle: saline with Tween-80
[13] = dose: 100.0 mg/kg/injection, schedule: Q04DX002 (ip), vehicle: saline with Tween-80
[14] = dose: 200.0 mg/kg/injection, schedule: Q01DX009 (ip), vehicle: saline with Tween-80
[15] = dose: 25.0 mg/kg/injection, schedule: Q01DX009 (ip), vehicle: saline with Tween-80

Measured: T/C

Cc1ccc(S(=O)(=O)NN=c2c3ccccc3ccc3ccccc23)cc1
inactive: dose: 100.0 mg/kg/injection, schedule: Q04DX002 (ip), vehicle: Klucel (hydroxypropylcellulose) (HPC) 94 % of control | dose: 200.0 mg/kg/injection, schedule: Q04DX002 (ip), vehicle: Klucel (hydroxypropylcellulose) (HPC) 91 % of control | dose: 400.0 mg/kg/injection, schedule: Q04DX002 (ip), vehicle: Klucel (hydroxypropylcellulose) (HPC) 90 % of control

Nc1nc(-c2ccc3ccccc3c2)cc(-c2cc(-c3ccc4ccccc4c3)nc(N)n2)n1
inactive: [1] 96 % of control | [2] 93 % of control | [3] 91 % of control

CC(C)(C)[Si](C)(C)O[C@H]1C[C@@H](O[Si](C)(C)C(C)(C)C)C=C1S(=O)(=O)c1ccccc1
inactive: [4] 101 % of control | [5] 107 % of control | [6] 111 % of control

Cc1ccc(C)n1-c1ccsc1C(=O)NNC(=O)CCl
inactive: dose: 7.5 mg/kg/injection, schedule: Q01DX005 (ip), vehicle: Klucel (hydroxypropylcellulose) (HPC) 101 % of control | dose: 15.0 mg/kg/injection, schedule: Q01DX005 (ip), vehicle: Klucel (hydroxypropylcellulose) (HPC) 99 % of control | [7] 100 % of control

C=CCCC1CN2CCc3cc(OC)c(OC)cc3C2CC1=O (configuration not stated)
inactive: dose: 50.0 mg/kg/injection, schedule: Q01DX009 (ip), vehicle: Klucel (hydroxypropylcellulose) (HPC) 113 % of control | dose: 100.0 mg/kg/injection, schedule: Q01DX009 (ip), vehicle: Klucel (hydroxypropylcellulose) (HPC) 103 % of control | dose: 200.0 mg/kg/injection, schedule: Q01DX009 (ip), vehicle: Klucel (hydroxypropylcellulose) (HPC) 105 % of control

O=S(=O)(NO)c1cccc(S(=O)(=O)NO)c1
inactive: dose: 25.0 mg/kg/injection, schedule: Q04DX003 (ip), vehicle: saline 110 % of control | dose: 50.0 mg/kg/injection, schedule: Q04DX003 (ip), vehicle: saline 115 % of control | dose: 100.0 mg/kg/injection, schedule: Q04DX003 (ip), vehicle: saline 110 % of control

COc1ccc2c(c1OC)OCC(CN(C)C)C2=O (configuration not stated)
inactive: dose: 15.0 mg/kg/injection, schedule: Q01DX005 (ip), vehicle: saline 100 % of control and 102 % of control | dose: 30.0 mg/kg/injection, schedule: Q01DX005 (ip), vehicle: saline 108 % of control and 111 % of control | dose: 60.0 mg/kg/injection, schedule: Q01DX005 (ip), vehicle: saline 106 % of control and 110 % of control and 114 % of control | dose: 120.0 mg/kg/injection, schedule: Q01DX005 (ip), vehicle: saline 114 % of control and 116 % of control

CCOC(=O)C(NC(=O)OC(C)(C)C)C(C)C (configuration not stated)
inactive: [8] 98 % of control | [9] 100 % of control | [10] 100 % of control

CCC(C)N(CC(C)C)CC(C)(O)CNc1cc(OC)cc2cccnc12 (configuration not stated)
inactive: dose: 12.0 mg/kg/injection, schedule: Q01DX005 (ip), vehicle: saline 100 % of control | dose: 25.0 mg/kg/injection, schedule: Q01DX005 (ip), vehicle: saline 105 % of control | dose: 50.0 mg/kg/injection, schedule: Q01DX005 (ip), vehicle: saline 108 % of control and 96 % of control

S=C1N(c2ccc(Br)cc2)C2=Nc3ccccc3SC(=C2N=Nc2ccccc2)N1c1ccc(Cl)cc1
inactive: [8] 94 % of control | [9] 90 % of control | [10] 93 % of control

Cn1c(O)c(N=O)c(=O)[nH]c1=O
inactive: [11] 95 % of control | [12] 99 % of control | [13] 100 % of control | [14] 87 % of control

Cc1nc(N(C)C)[nH]c(=O)c1N=Nc1ccc(Cl)cc1
inactive: [6] 105 % of control | dose: 100.0 mg/kg/injection, schedule: Q01DX005 (ip), vehicle: Klucel (hydroxypropylcellulose) (HPC) 114 % of control | dose: 200.0 mg/kg/injection, schedule: Q01DX005 (ip), vehicle: Klucel (hydroxypropylcellulose) (HPC) 105 % of control

O=S(CCCl)c1ccccc1 (configuration not stated)
inactive: [15] 96 % of control | [11] 97 % of control | [12] 101 % of control | [14] 90 % of control

CC1C(=O)OC2C1CCC1(C)CC(Br)C(=O)C(C)C21 (configuration not stated)
inactive: [13] 102 % of control | dose: 200.0 mg/kg/injection, schedule: Q04DX002 (ip), vehicle: saline with Tween-80 102 % of control and 100 % of control | dose: 400.0 mg/kg/injection, schedule: Q04DX002 (ip), vehicle: saline with Tween-80 104 % of control and 101 % of control

CC(CCC(=O)O)(c1ccc(OC(=O)Nc2cccc([N+](=O)[O-])c2)cc1)c1ccc(OC(=O)Nc2cccc([N+](=O)[O-])c2)cc1
inactive: [8] 98 % of control | [9] 91 % of control

Cc1ccc(S(=O)(=O)N/N=C/c2ccc(O)c(Cl)c2)cc1
inactive: dose: 12.5 mg/kg/injection, schedule: Q01DX005 (ip), vehicle: distilled water + Tween-80 102 % of control | dose: 25.0 mg/kg/injection, schedule: Q01DX005 (ip), vehicle: distilled water + Tween-80 102 % of control | dose: 50.0 mg/kg/injection, schedule: Q01DX005 (ip), vehicle: distilled water + Tween-80 98 % of control | dose: 100.0 mg/kg/injection, schedule: Q01DX005 (ip), vehicle: distilled water + Tween-80 100 % of control | dose: 200.0 mg/kg/injection, schedule: Q01DX005 (ip), vehicle: distilled water + Tween-80 99 % of control

Cc1[nH]nc2c(NC[c-]3[c-][c-][c-][c-]3)ncnc12.[Fe].[c-]1[c-][c-][cH-][c-]1
inactive: dose: 6.25 mg/kg/injection, schedule: Q01DX005 (ip), vehicle: Klucel (hydroxypropylcellulose) (HPC) 101 % of control | [4] 100 % of control | [5] 115 % of control and 86 % of control

CSc1n[nH]c(C(F)(F)F)n1
inactive: [7] 105 % of control | [1] 103 % of control | [2] 95 % of control | [3] 94 % of control

Cc1c(Cl)cnc(N)c1Cl (tested in a mixture with another compound)
inactive: [15] 93 % of control | [11] 90 % of control | [12] 93 % of control | [14] 95 % of control

c1ccc(/C(=N\Nc2ccc3ccccc3n2)c2ccccn2)cc1
inactive: [8] 110 % of control | [9] 94 % of control | [10] 100 % of control

O=C1OC(=O)C2=C1CCC2
inactive: dose: 12.5 mg/kg/injection, schedule: Q01DX009 (ip), vehicle: distilled water + Tween-80 100 % of control | dose: 25.0 mg/kg/injection, schedule: Q01DX009 (ip), vehicle: distilled water + Tween-80 100 % of control | dose: 50.0 mg/kg/injection, schedule: Q01DX009 (ip), vehicle: distilled water + Tween-80 91 % of control

CNC(=S)ON1CCCCC1
inactive: [12] 111 % of control | [14] 108 % of control

NC(=O)Cc1[nH]ccc1C(=O)O
inactive: dose: 100.0 mg/kg/injection, schedule: Q01DX001 (ip), vehicle: saline with Tween-80 103 % of control | dose: 200.0 mg/kg/injection, schedule: Q01DX001 (ip), vehicle: saline with Tween-80 97 % of control | dose: 400.0 mg/kg/injection, schedule: Q01DX001 (ip), vehicle: saline with Tween-80 97 % of control

CCOc1c(Cc2ccccc2)c(=O)n2c3ccccc3n(CC)c2c1C#N
inactive: dose: 7.5 mg/kg/injection, schedule: Q01DX005 (ip), vehicle: saline with Tween-80 100 % of control | dose: 15.0 mg/kg/injection, schedule: Q01DX005 (ip), vehicle: saline with Tween-80 102 % of control | dose: 30.0 mg/kg/injection, schedule: Q01DX005 (ip), vehicle: saline with Tween-80 101 % of control
